This assay deals with T1, human estrogen receptor (Homo sapiens, UniProt P03372).
T1 construct: expressed in transfected cells; host or cells: Chinese Hamster Ovary cells (CHO), stably transfected
T1 sequence (P03372 1-595): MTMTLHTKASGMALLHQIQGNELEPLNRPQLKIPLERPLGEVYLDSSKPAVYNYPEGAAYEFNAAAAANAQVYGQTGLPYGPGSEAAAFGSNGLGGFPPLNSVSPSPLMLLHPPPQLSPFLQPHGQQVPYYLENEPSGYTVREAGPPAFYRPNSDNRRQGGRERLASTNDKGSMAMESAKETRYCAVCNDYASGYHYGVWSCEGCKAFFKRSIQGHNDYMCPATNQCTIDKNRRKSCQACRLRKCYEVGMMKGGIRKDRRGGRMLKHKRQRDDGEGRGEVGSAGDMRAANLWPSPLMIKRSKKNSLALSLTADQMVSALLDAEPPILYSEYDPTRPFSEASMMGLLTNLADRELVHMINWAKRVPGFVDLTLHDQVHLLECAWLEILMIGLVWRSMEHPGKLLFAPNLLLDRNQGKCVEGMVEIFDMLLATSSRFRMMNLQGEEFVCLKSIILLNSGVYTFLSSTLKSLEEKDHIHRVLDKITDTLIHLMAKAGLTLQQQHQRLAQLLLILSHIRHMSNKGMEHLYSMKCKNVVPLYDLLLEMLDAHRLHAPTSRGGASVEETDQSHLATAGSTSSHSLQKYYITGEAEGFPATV
Put plainly: 2X VIT ERE Transfection Assay (estrogen receptor assay; luciferase reporter activity compared to 17β-estradiol in CHO cells stably transfected with the human estrogen receptor). Type of assay: cell-based. The settings on record: 1 μM compound. On the procedure:
Enhancement of luciferase gene expression in this model is dependent upon estrogen receptor (ER) interaction with a vitellogenin gene estrogen responsive element (ERE) capable of enhancing basal promoter activity. This is a sensitive and rapid methodology to assess estrogenic/antiestrogenic potency of compounds.
48 h prior to treatment the growth medium is replaced with DMEM lacking phenol red+10% dextran coated charcoal stripped FBS (treatment medium). Cells are plated at a density of 5000 cells/well in 96-well plates containing 200 μL of medium/well.
20 μL of this mixture is added to each well of cells and remains on the cells for 16 h. […] Each treatment condition is performed on 8 wells (n=8) which are incubated for 24 h prior to luciferase assay.
The data is logged and automatically sent to a JMP statistical program for analysis. A hard copy printout is also produced at the time of the assay.
A plate containing a standard curve (0.1 to 1.5 milliunits in triplicate) is set up for each experimental run. The plates are analyzed on a Molecular Devices spectrophotometric plate reader at 410 nm. The optical densities for the unknowns are converted to milliunits of activity by mathematical extrapolation from the standard curve. […] The mean and standard deviation is determined from a n=8 for each treatment.
For orientation: A reporter such as luciferase makes a cellular process visible.

Take `CCOC(=O)Cn1c(-c2ccccc2)c(C2=C(C(=O)OC)CCC2)c2ccc(C(=O)O)cc21` [Example 12, 1-Ethoxycarbonylmethyl-3-(2-methoxycarbonyl-cyclopent-1-enyl)-2-phenyl-1H-indole-6-carboxylic Acid]: the “estrogenic classification / activity in words” value is reported as “estrogenic”.

The record behind these values is patent US5932743A, “Methods for the solid phase synthesis of substituted indole compounds” (American Home Products Corporation, priority 1998, dated 1999).
